Experimental data taken from patent US9695191B2, “Conformationally constrained, fully synthetic macrocyclic compounds” (POLYPHOR AG, priority 2009, dated 2017).
Read-outs that look alike come from different tables or passages of the source.

Columns and labels:
[1] = amide bond
[2] = Metabolic stability, CD-1 mouse microsomes; assay type: in vitro ADME; conditions: % of the initial 0 minutes value at 60 min, 10 μM, 37° C.
Experimental: (§1) Microsomes from a human 50 donor mixed gender pool and 1:1 mixtures of microsomes from CD-1 mouse single-gender pools are purchased from Celsis (Belgium). The enzymatic reaction is performed in a buffer containing an NADPH regeneration system and microsomes with the following end concentrations: 100 mM potassium phosphate buffer (all from Sigma), 1 mg/mL glucose-6-phosphate, 1 mg/mL β-nicotinamide adenine dinucleotide phosphate (NADP), 0.65 mg/mL magnesium chloride, 0.8 units/mL of glucose-6-phosphate dehydrogenase (prediluted with 5 mM citrate buffer), 10 μM compound and 1 mg/ml microsomal protein. Compounds are incubated at 37° C. in duplicates and samples are taken after 0, 20 and 60 minutes. After acetonitrile precipitation (2 volumes) and HPLC/MS/MS analysis metabolic turnover is expressed in % of the initial 0 minutes value and half life T½ (min) is calculated. Verapamil for human and propranolol for mouse are used as reference and are assayed with every experimental set. • F. P. Guengerich, Analysis and Characterization of Enzymes; in: Principles and Methods of Toxicology; A. W. Hayes (Ed.) Raven Press: New York, 1989, 777-813. • R. Singh et al., In vitro metabolism of a potent HIV-protease inhibitor (141W94) using rat, monkey and human liver S9, Rapid Commun. Mass Spectrom. 1996, 10, 1019-1026. 5. Results

[3] = human, 10 μM
Experimental: (§2) Example compounds were dissolved in DMSO/H2O 90:10 to a final concentration of 10 mM for plasma stability determination and metabolic stability determination.
(§3) Human plasma (3-5 donors, Blutspendedienst SRK, Basel) and CD-1 mouse plasma (mixed gender pool>50 animals, Innovative Research, CA, USA) are both sodium citrate stabilized. The assay is performed in triplicates at 10 μM compound concentration and 37° C. Samples are taken at 0, 15, 60, and 240 minutes and stopped by precipitation with 2 volumes of acetonitrile. The supernatant is collected, evaporated and reconstituted in a 5% acetonitrile solution to be analyzed by HPLC/MS/MS. The resulting peak area counts are expressed in percent of the 0 value and used to determine the endpoint stability in % and the half life T½ in minutes. In order to monitor assay integrity the degradation of propantheline is assayed with every experimental set

[4] = both, CD-1, mouse, 10 μM
Experimental: as §2, §3

[5] = Metabolic stability, human microsomes; assay type: in vitro ADME; conditions: % of the initial 0 minutes value at 60 min, 10 μM, 37° C.
Experimental: as §1

Metabolic Stability 60 min mouse [2] [%] | Plasma Stability 240 min hum [3] [%] | Plasma Stability 240 min mouse [4] [%] | Metabolic Stability 60 min hum [5] [%] | SMILES | also measured
39 | 65 | 75 | 4 | CCCCCCCCCC(=O)N[C@H]1C[C@H]2COc3ccc(F)cc3C(=O)N(C)[C@H](C(=O)NCc3ccc4ccccc4c3)CCC(=O)N(C)CC(=O)N2C1 [Ex. 102, (2S,11S,19aS)-2-(decanoylamino)-15-fluoro-7,12-dimethyl-N-(2-naphthylmethyl)-5,8,13-trioxo-2,3,6,7,8,9,10,11,12,13,19,19a-dodecahydro-1H,5H-pyrrolo[2,1-c][1,4,7,12] benzoxatriazacyclopentadecine-11-carboxamide] | 
99 | 89 | 78 | 62 | CN(C)CCNC(=O)[C@H]1CCC(=O)N(C)CC(=O)N2CCN(C(=O)Cc3ccc4ccccc4c3)C[C@@H]2COc2ccc(F)cc2C(=O)N1C [Ex. 138, (12R,20aR)-N-[2-(dimethylamino)ethyl]-16-fluoro-8,13-dimethyl-2-[2-(2-naphthyl)acetyl]-6,9,14-trioxo-1,2,3,4,7,8,9,10,11,12,13,14,20,20a-tetradecahydro-6H-pyrazino[2,1-c][1,4,7,12] benzoxatriazacyclopentadecine-12-carboxamide] | 
0 | 66 | 58 | 0 | CN1CCC[C@H](NC(=O)OCc2ccccc2)C(=O)N2C[C@@H](NC(=O)Cc3ccc4ccccc4c3)C[C@H]2COc2cccc(c2)C1=O [Ex. 184, benzyl N-[(4S,6S,10S)-14-methyl-6-{[2-(2-naphthyl)acetyl]amino}-9,15-dioxo-2-oxa-8,14-diazatricyclo[14.3.1.0^4,8]icosa-1(20),16,18-trien-10-yl]carbamate] | 
26 | 91 | 100 | 12 | CN1C[C@H](NC(=O)OCc2ccccc2)C(=O)N(C)CC(=O)N2C[C@@H](NC(=O)Cc3c[nH]c4ccccc34)C[C@H]2COc2cccc(c2)C1=O [Ex. 200, benzyl N-[(4S,6S,13S)-6-{[2-(1H-indol-3-yl)acetyl]amino}-11,15-dimethyl-9,12,16-trioxo-2-oxa-8,11,15-triazatricyclo[15.3.1.0^4,8]henicosa-1(21),17,19-trien-13-yl]carbamate] | 
90 | 100 | 95 | 61 | CN(C)CC(=O)N[C@@H]1C[C@H]2COc3cccc(c3)C(=O)N(C)C[C@H](NC(=O)Cc3ccc4ccccc4c3)C(=O)N(C)CC(=O)N2C1 [Ex. 230, 2-(dimethylamino)-N-[(4S,6R,13S)-11,15-dimethyl-13-{[2-(2-naphthyl)acetyl]amino}-9,12,16-trioxo-2-oxa-8,11,15-triazatricyclo[15.3.1.0^4,8]henicosa-1(21),17,19-trien-6-yl]acetamide] | 
69 | 100 | 100 | 19 | CN1CC(=O)N2C[C@H](NC(=O)CCc3ccncc3)C[C@H]2COc2ccc(cc2)C(=O)N(C)[C@H](C(=O)NCc2ccc3ccccc3c2)CCC1=O [Ex. 260, (4S,6R,15S)-11,16-dimethyl-N-(2-naphthylmethyl)-9,12,17-trioxo-6-{[3-(4-pyridinyl)propanoyl]amino}-2-oxa-8,11,16-triazatricyclo[16.2.2.0^4,8]docosa-1(20),18,21-triene-15-carboxamide] | 
4 | 100 | 93 | 0 | CCN(CC)[C@@H]1C[C@H]2COc3ccc(cc3)C(=O)N(C)[C@H](C(=O)NCc3ccc4ccccc4c3)CCC(=O)N(C)CC(=O)N2C1 [Ex. 262, (4S,6R,15S)-6-(diethylamino)-11,16-dimethyl-N-(2-naphthylmethyl)-9,12,17-trioxo-2-oxa-8,11,16-triazatricyclo [16.2.2.0^4,8]docosa-1(20),18,21-triene-15-carboxamide] | 
98 | 92 | 74 | 100 | CN1CC(=O)N2C[C@H](NC(=O)CN3CCCC3)C[C@H]2COc2ccc(cc2)C(=O)N(C)[C@H](C(=O)NCc2ccncc2)CCC1=O [Ex. 266, (4S,6R,15S)-11,16-dimethyl-9,12,17-trioxo-N-(4-pyridinylmethyl)-6-{[2-(1-pyrrolidinyl)acetyl]amino}-2-oxa-8,11,16-triazatricyclo[16.2.2.0^4,8]docosa-1(20),18,21-triene-15-carboxamide] | 
100 | 75 | 79 | 99 | CN1CC(=O)N2C[C@H](NC(=O)CCC(=O)O)C[C@H]2COc2ccc(cc2)C(=O)N(C)[C@H](C(=O)NCc2ccncc2)CCC1=O [Ex. 267, 4-{[(4S,6R,15S)-11,16-dimethyl-9,12,17-trioxo-15-{[(4-pyridinylmethyl)amino]carbonyl}-2-oxa-8,11,16-triazatricyclo [16.2.2.0^4,8]docosa-1(20),18,21-trien-6-yl]amino}-4-oxobutanoic acid] | 

The remaining lines, values behind:

SMILES | Metabolic Stability 60 min mouse [2] [%] | Plasma Stability 240 min hum [3] [%] | Plasma Stability 240 min mouse [4] [%] | Metabolic Stability 60 min hum [5] [%] | also measured
CN1C(=O)c2cc(F)ccc2OC[C@@H]2CN(C(=O)OC(C)(C)C)CCN2C(=O)CC[C@H]1C(=O)OCc1ccccc1 |  |  |  |  | ring closure, yield of all isomers ([1]; from CN(C(=O)c1cc(F)ccc1OC[C@@H]1CN(C(=O)OC(C)(C)C)CCN1)[C@@H](CCC(=O)O)C(=O)OCc1ccccc1, T3P, CH2Cl2, 0.57 mM, 25.0 °C, 22.0 h): 77%
CN1C(=O)c2cc(F)ccc2OC[C@@H]2C[C@H](NC(=O)OCC[Si](C)(C)C)CN2C(=O)CC[C@H]1C(=O)OCc1ccccc1 |  |  |  |  | ring closure, yield of all isomers ([1]; from CN(C(=O)c1cc(F)ccc1OC[C@@H]1C[C@H](NC(=O)OCC[Si](C)(C)C)CN1)[C@@H](CCC(=O)O)C(=O)OCc1ccccc1, T3P, CH2Cl2, 10.0 mM, 25.0 °C, […]): 61%
CN1CC(=O)N2C[C@@H](NC(=O)OC(C)(C)C)C[C@H]2COc2ccc(F)cc2C(=O)N(C)[C@H](C(=O)OCc2ccccc2)CCC1=O |  |  |  |  | ring closure, yield of all isomers ([1]; from CNCC(=O)N1C[C@@H](NC(=O)OC(C)(C)C)C[C@H]1COc1ccc(F)cc1C(=O)N(C)[C@@H](CCC(=O)O)C(=O)OCc1ccccc1, FDPP, DMF, 8.44 mM, 25.0 °C, 22.0 h): 94%
CN1CC(=O)N2C[C@@H](NC(=O)OCC[Si](C)(C)C)C[C@H]2COc2cccc3c2C[C@@](NC(=O)OC(C)(C)C)(CC3)C(=O)N(C)C[C@H](NC(=O)OCc2ccccc2)C1=O |  |  |  |  | ring closure, yield of all isomers ([1]; from CN(CC(=O)O)C(=O)[C@H](CN(C)C(=O)[C@]1(NC(=O)OC(C)(C)C)CCc2cccc(OC[C@@H]3C[C@H](NC(=O)OCC[Si](C)(C)C)CN3)c2C1)NC(=O)OCc1ccccc1, T3P, CH2Cl2, 10.0 mM, 2.0 h): 44%
CN1CC(=O)N2C[C@H](NC(=O)OC(C)(C)C)C[C@H]2COc2ccc(F)cc2C(=O)N(C)[C@H](C(=O)OCc2ccccc2)CCC1=O |  |  |  |  | ring closure, yield of all isomers ([1]; from CNCC(=O)N1C[C@H](NC(=O)OC(C)(C)C)C[C@H]1COc1ccc(F)cc1C(=O)N(C)[C@@H](CCC(=O)O)C(=O)OCc1ccccc1, T3P, CH2Cl2, 10.5 mM, 25.0 °C, 22.0 h): 87%
CN1CC(=O)N2C[C@H](NC(=O)OC(C)(C)C)C[C@H]2COc2ccc(cc2)C(=O)N(C)[C@H](C(=O)OCc2ccccc2)CCC1=O |  |  |  |  | ring closure, yield of all isomers ([1]; from CNCC(=O)N1C[C@H](NC(=O)OC(C)(C)C)C[C@H]1COc1ccc(C(=O)N(C)[C@@H](CCC(=O)O)C(=O)OCc2ccccc2)cc1, T3P, CH2Cl2, 1.05 mM, 3.0 h): 54%
CN1CC(=O)N2C[C@H](NC(=O)OC(C)(C)C)C[C@H]2CSc2cccc(c2)C(=O)N(C)[C@H](C(=O)OCc2ccccc2)CCC1=O |  |  |  |  | ring closure, yield of all isomers ([1]; from CNCC(=O)N1C[C@H](NC(=O)OC(C)(C)C)C[C@H]1CSc1cccc(C(=O)N(C)[C@@H](CCC(=O)O)C(=O)OCc2ccccc2)c1, T3P, CH2Cl2, 10.0 mM, 25.0 °C, 3.0 h): 57%
CN1CCC[C@H](NC(=O)OCc2ccccc2)C(=O)N2C[C@@H](NC(=O)OCC[Si](C)(C)C)C[C@H]2COc2cccc(c2)C1=O |  |  |  |  | ring closure, yield of all isomers ([1]; from CN(CCC[C@H](NC(=O)OCc1ccccc1)C(=O)O)C(=O)c1cccc(OC[C@@H]2C[C@H](NC(=O)OCC[Si](C)(C)C)CN2)c1, T3P, i-Pr2NEt, CH2Cl2, 9.4 mM): 54%
CC(=O)N[C@H]1CN(C)C(=O)c2cccc(c2)OC[C@@H]2C[C@H](NC(=O)CN(C)C)CN2C(=O)CN(C)C1=O [Ex. 208, N-[(4S,6S,13S)-13-(acetylamino)-11,15-dimethyl-9,12,16-trioxo-2-oxa-8,11,15-triazatricyclo[15.3.1.0^4,8]henicosa-1(21),17,19-trien-6-yl]-2-(dimethylamino)acetamide] | 100 | 98 | 90 | 84 | 
